In ChEMBL document CHEMBL1146112, “Fluorescent glycosidase inhibiting 1,5-dideoxy-1,5-iminoalditols” (Bioorg Med Chem Lett, 2006):

Key:
[1] = target: T1, Tissue alpha-L-fucosidase (Homo sapiens, UniProt P04066); assay: Inhibition of human liver alpha-L-fucosidase
T1 sequence (P04066 whole entry): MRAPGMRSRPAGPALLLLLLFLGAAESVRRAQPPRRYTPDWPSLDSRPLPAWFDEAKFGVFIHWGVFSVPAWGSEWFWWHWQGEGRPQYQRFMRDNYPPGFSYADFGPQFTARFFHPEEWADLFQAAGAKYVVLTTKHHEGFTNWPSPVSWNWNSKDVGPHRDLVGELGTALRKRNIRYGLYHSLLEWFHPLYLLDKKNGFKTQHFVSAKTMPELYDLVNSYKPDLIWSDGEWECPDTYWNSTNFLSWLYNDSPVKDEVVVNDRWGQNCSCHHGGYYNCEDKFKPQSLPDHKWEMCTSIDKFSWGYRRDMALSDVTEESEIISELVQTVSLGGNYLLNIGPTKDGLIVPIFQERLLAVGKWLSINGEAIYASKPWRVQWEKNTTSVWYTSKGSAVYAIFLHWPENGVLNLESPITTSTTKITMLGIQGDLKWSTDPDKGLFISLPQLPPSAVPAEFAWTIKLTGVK

Beta-xylosidase = target: T2, Beta-xylosidase (Thermoanaerobacterium saccharolyticum, UniProt P36906); assay: Inhibition of Thermoanaerobacterium saccharolyticum beta-xylosidase
T2 sequence (P36906 whole entry): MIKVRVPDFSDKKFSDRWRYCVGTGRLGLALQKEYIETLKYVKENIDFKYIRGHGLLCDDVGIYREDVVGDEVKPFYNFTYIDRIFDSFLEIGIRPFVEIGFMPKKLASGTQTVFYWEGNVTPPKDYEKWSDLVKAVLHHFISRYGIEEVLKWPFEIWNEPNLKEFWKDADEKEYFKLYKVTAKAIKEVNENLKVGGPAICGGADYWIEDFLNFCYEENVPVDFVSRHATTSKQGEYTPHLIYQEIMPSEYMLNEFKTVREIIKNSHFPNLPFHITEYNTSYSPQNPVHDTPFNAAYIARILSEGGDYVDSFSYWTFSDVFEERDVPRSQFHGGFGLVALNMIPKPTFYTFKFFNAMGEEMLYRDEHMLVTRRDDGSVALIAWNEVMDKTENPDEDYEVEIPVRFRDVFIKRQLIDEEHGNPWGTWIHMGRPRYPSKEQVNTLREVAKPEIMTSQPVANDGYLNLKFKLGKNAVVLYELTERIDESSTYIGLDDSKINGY

| Ki [1] [nM] | Ki (Beta-xylosidase) [µM] | SMILES |
| --- | --- | --- |
| 500 | – | C[C@H]1[C@@H](O)[C@@H](O)[C@H](O)CN1CCCCCCNS(=O)(=O)c1cccc2c(N(C)C)cccc12 |
| – | 7.6 | CN(C)c1cccc2c(S(=O)(=O)NCCCCCCN3C[C@@H](O)[C@H](O)[C@@H](O)C3)cccc12 |
| – | 206 | O[C@H]1[C@H](O)CNC[C@@H]1O [DIDEOXYIMINOXYLITOL] |
